According to patent US11180504B2 (ORCHID PHARMA LTD., priority 2016, dated 2021):
Values after ≈ are worked out from the molar mass of the structure shown. Like-named read-outs stand apart in the source and are kept apart here.

Columns and labels:
[1] = test system: methicillin-sensitive Staphylococcus aureus; assay: MIC by broth micro-dilution (CLSI), methicillin-sensitive S. aureus; type: cell-based; details: MSSA S. aureus ATCC29213
[2] = test system: carbapenem sensitive Escherichia coli; assay: MIC by broth micro-dilution (CLSI), carbapenem sensitive E. coli; type: cell-based
[3] = test system: carbapenemase producing K. pneumoniae; assay: MIC by broth micro-dilution (CLSI), carbapenemase producing K. pneumoniae; type: cell-based, Klebsiella pneumoniae
[4] = test system: carbapenem sensitive Pseudomonas aeruginosa; assay: MIC by broth micro-dilution (CLSI), carbapenem sensitive P. aeruginosa; type: cell-based
[5] = KPC-2 K. pneumoniae ATCC BAA-1705
[6] = Meropenem susceptible P. aeruginosa ATCC27853
[7] = Staphylococcus aureus, ATCC29213|MSSA, read-out: MIC
[8] = Escherichia coli, ATCC25922, ESBL −ve E. coli ATCC25922, read-out: MIC
[9] = Klebsiella pneumoniae, ATCCBAA1705, KPC-2 K. pneumoniae ATCC BAA-1705, read-out: MIC
[10] = Pseudomonas aeruginosa, ATCC27853, Meropenem susceptible P. aeruginosa ATCC27853, read-out: MIC
[11] = Staphylococcus aureus, ATCC 29213 / MSSA, read-out: MIC

Row | SMILES | MIC [1] [µg/mL] | MIC ([2]; ESBL −ve E. coli ATCC25922) [µg/mL] | MIC [3, 5] [µg/mL] | MIC [4, 6] [µg/mL] | MIC [1, 7] [µg/mL] | MIC [2, 8] [µg/mL] | MIC [3, 9] [µg/mL] | MIC [4, 10] [µg/mL] | MIC [1, 11] [µg/mL]
1 | C[C@@H](NC(=O)Cn1cnnn1)[C@H]1C(=O)N2C(C(=O)O)=C(S[C@@H]3CN[C@H](C(=O)N4CC5(CC(N)CO5)C4)C3)[C@H](C)[C@H]12 (single isomer, unassigned) [Example 531] | 4 (≈ 6.95 µM) | 0.125 (≈ 0.217 µM) | 2 (≈ 3.47 µM) | 1 (≈ 1.74 µM) | – | – | – | – | –
2 | C[C@@H](NC(=O)Cn1cnnn1)[C@H]1C(=O)N2C(C(=O)O)=C(S[C@@H]3CN[C@H](C(=O)N4CCC5CN(C[C@@H](O)CN)CCC54)C3)[C@H](C)[C@H]12 (single isomer, unassigned) [Example 532] | 4 (≈ 6.18 µM) | 0.25 (≈ 0.387 µM) | 2 (≈ 3.09 µM) | 2 (≈ 3.09 µM) | – | – | – | – | –
3 | C[C@@H](NC(=O)Cn1cnnn1)[C@H]1C(=O)N2C(C(=O)O)=C(S[C@@H]3CN[C@H](C(=O)N4CCC5CNCC5C4)C3)[C@H](C)[C@H]12 (single isomer, unassigned) [Example 533] | – | – | – | – | 4 (≈ 6.97 µM) | 0.25 (≈ 0.436 µM) | 2 (≈ 3.49 µM) | 2 (≈ 3.49 µM) | –
4 | C[C@@H](NC(=O)Cn1cnnn1)[C@H]1C(=O)N2C(C(=O)O)=C(S[C@@H]3CN[C@H](C(=O)N4CCC5CNCC5C4)C3)[C@H](C)[C@H]12 (single isomer, unassigned) [Example 534] | 2 (≈ 3.49 µM) | 0.125 (≈ 0.218 µM) | 1 (≈ 1.74 µM) | 1 (≈ 1.74 µM) | – | – | – | – | –
5 | C[C@@H](NC(=O)Cn1cnnn1)[C@H]1C(=O)N2C(C(=O)O)=C(S[C@@H]3CN[C@H](C(=O)N4CCC5CNCC5(CO)C4)C3)[C@H](C)[C@H]12 (single isomer, unassigned) [Example 535] | – | – | – | – | 2 (≈ 3.31 µM) | 0.25 (≈ 0.414 µM) | 2 (≈ 3.31 µM) | 1 (≈ 1.66 µM) | –
6 | C[C@@H](NC(=O)Cn1cnnn1)[C@H]1C(=O)N2C(C(=O)O)=C(S[C@@H]3CN[C@H](C(=O)N4CCC5CNCC5(CO)C4)C3)[C@H](C)[C@H]12 (single isomer, unassigned) [Example 537] | 4 (≈ 6.63 µM) | 0.25 (≈ 0.414 µM) | 2 (≈ 3.31 µM) | 2 (≈ 3.31 µM) | – | – | – | – | –
7 | C[C@@H](NC(=O)Cn1cnnn1)[C@H]1C(=O)N2C(C(=O)O)=C(S[C@@H]3CN[C@H](C(=O)N4CC5CCNCC5(CO)C4)C3)[C@H](C)[C@H]12 (single isomer, unassigned) [Example 539] | – | – | – | – | – | 0.25 (≈ 0.414 µM) | 1 (≈ 1.66 µM) | 2 (≈ 3.31 µM) | 4 (≈ 6.63 µM)
8 | C[C@@H](NC(=O)Cn1cnnn1)[C@H]1C(=O)N2C(C(=O)O)=C(S[C@@H]3CN[C@H](C(=O)N4CC5CCNCC5(CO)C4)C3)[C@H](C)[C@H]12 (single isomer, unassigned) [Example 542] | 4 (≈ 6.63 µM) | 0.25 (≈ 0.414 µM) | 2 (≈ 3.31 µM) | 2 (≈ 3.31 µM) | – | – | – | – | –
9 | C[C@@H](NC(=O)Cn1cnnn1)[C@H]1C(=O)N2C(C(=O)O)=C(S[C@@H]3CN[C@H](C(=O)N4CC5CC(CO)NC5C4)C3)[C@H](C)[C@H]12 (single isomer, unassigned) [Example 551] | – | – | – | – | – | 0.25 (≈ 0.424 µM) | 2 (≈ 3.39 µM) | 2 (≈ 3.39 µM) | 4 (≈ 6.78 µM)
10 | C[C@@H](NC(=O)Cn1cnnn1)[C@H]1C(=O)N2C(C(=O)O)=C(S[C@@H]3CN[C@H](C(=O)N4CC5CCNC5(CO)C4)C3)[C@H](C)[C@H]12 (single isomer, unassigned) [Example 555] | – | – | – | – | – | 0.25 (≈ 0.424 µM) | 1 (≈ 1.7 µM) | 2 (≈ 3.39 µM) | 4 (≈ 6.78 µM)
11 | C[C@@H](NC(=O)Cn1cnnn1)[C@H]1C(=O)N2C(C(=O)O)=C(S[C@@H]3CN[C@H](C(=O)N4CC5CCNC5(CO)C4)C3)[C@H](C)[C@H]12 (single isomer, unassigned) [Example 556] | 2 (≈ 3.39 µM) | 0.125 (≈ 0.212 µM) | 1 (≈ 1.7 µM) | 4 (≈ 6.78 µM) | – | – | – | – | –
12 | C[C@@H](NC(=O)Cn1cnnn1)[C@H]1C(=O)N2C(C(=O)O)=C(SC3COC4(CNC4)C3)[C@H](C)[C@H]12 (single isomer, unassigned) [Example 557] | 4 (≈ 8.63 µM) | 0.125 (≈ 0.27 µM) | – | 16 (≈ 34.5 µM) | – | – | 4 (≈ 8.63 µM) | – | –
13 | C[C@@H](NC(=O)Cn1cnnn1)[C@H]1C(=O)N2C(C(=O)O)=C(SC3COC4(CNC4)C3)[C@H](C)[C@H]12 (single isomer, unassigned) [Example 558] | 16 (≈ 34.5 µM) | 0.5 (≈ 1.08 µM) | 2 (≈ 4.31 µM) | 128 (≈ 276 µM) | – | – | – | – | –
